Data published in patent publication US10441787B2, “Neuromodulation device” (GALVANI BIOE[…], priority 2015, dated 2019).
“Also recorded” adds a separate entry of the source.

System: guinea pig airway smooth muscle tone
Test: In-vivo model of baseline airway smooth muscle tone
Set-up: dose or concentration left out as unconfirmed
Conditions: anesthetized guinea pigs; atropine delivered selectively to the trachea via Krebs buffer perfusion; isometric tension of tracheal rings 6 and 7
Source text: FIG. 10: Schematic illustration of the method for assessing vagally-mediated baseline airay smooth muscle tone in anesthetized guinea pigs. (As described in, Mazzone and Canning, Curr. Protoc. Pharmacol. 2002. May 1; Chapter 5: Unit 5.26.)
Methods for studying vagally-mediated bronchospasm in anesthetized guinea pigs have been described in detail elsewhere (Mazzone and Canning, Curr Protoc Pharmacol. 2002 May 1; Chapter 5:Unit 5.26; Auton Neurosci. 2002 Aug. 30; 99(2):91-101) and shown in FIG. 10. Guinea pigs are anesthetized with urethane (1.5 g/kg ip). The trachea and vagus nerves are visualized by a midline incision in the neck. The trachea is cannulated and connected to a constant volume ventilator (6 mL/kg body weight). The animals are then paralyzed with succinylcholine (2.5 mg/kg sc). An artery and vein are cannulated to monitor cardiovascular parameters and for drug delivery. The vagus nerves are placed on bipolar electrodes. […] Bronchospasm is recorded as a percentage increase in pulmonary inflation pressure.
Using the method illustrated in FIG. 10, the portion of the trachea where isometric tension was measured (rings 6 and 7 caudal to the larynx) was perfused with warmed (37° C.), oxygenated Krebs buffer, which was used for selective delivery of atropine ([…]) to the trachea. […]

Question: Which “baseline airway smooth muscle tone” value does the source give for `CN1[C@@H]2CC[C@H]1C[C@@H](OC(=O)C(CO)c1ccccc1)C2` (stereo partly shown) [atropine] here?
Answer: decrease in baseline airway smooth muscle tone; also recorded: Inhibition of guinea pig airway smooth muscle tone
